Measurements as given in US20240307374A1, “FORMULATION OF FURIN INHIBITOR FOR INHALATION” (BP ASSET V, INC., priority 2021, published 2024).
Converted amounts (≈) assume the structure as drawn. “And” between values parts separate entries of the source, which are not always exact repeats. Identical values can stand only once. Counter-ions that a name gives are not always drawn.

Assays:
Format in all cases: physicochemical
[1] = Equilibrium solubility in pH buffers (3.0-8.0), 20% captisol and water; details: H2O, RT, 24 hrs
Experimental: Additional solids were added into the sample to generate suspension if clear solution obtained. The suspension was equilibrated via stirring (1000 rpm). The suspension was centrifuged to obtain precipitate and supernatants.
Solubility and pH were tested for the supernatants after filtration, and isolated precipitate was tested by XRPD.
(§1) • 1. pH=3.0 buffer (50 mM HCl+KCl): Weigh 365.39 mg KCl into a 100 mL volumetric flask (VF), and add 0.1 mL 1M HCl into the VF, and dilute to volume with water. • 2. pH=4.0 buffer (50 mM citrate): Weigh 56.74 mg citric acid and 60.18 mg trisodium citrate into a 10 mL volumetric flask, and dilute to volume with water. • 3. pH=5.0 buffer (50 mM citrate) Weigh 11.12 mg citric acid and 95.38 mg trisodium citrate into a 10 mL volumetric flask, and dilute to volume with water. • 4. pH=6.0 buffer (50 mM citrate) Weigh 11.04 mg citric acid and 130.2 mg trisodium citrate into a 10 mL volumetric flask, and dilute to volume with water. • 5. pH=6.0 buffer (50 mM phosphate) Weigh 8.7 mg Na2HPO4 and 52.6 mg NaH2PO4 into a 10 mL volumetric flask, and dilute to volume with water. • 6. pH=7.0 buffer (50 mM phosphate) Weigh 23.47 mg Na2HPO4 and 43.34 mg NaH2PO4into a 10 mL volumetric flask, and dilute to volume with water. • 7. pH=8.0 buffer (50 mM phosphate) Weigh 31.64 mg Na2HPO4 and 67.18 mg NaH2PO4into a 10 mL volumetric flask, and dilute to volume with water.

[2] = pKa test, spectrophotometric method (UV-metric pKa)
Experimental: (§2) The spectrophotometric method (UV-metric pKa) and potentiometric method (pH-metric pKa) were used for pKa test of Compound (I) freeform.
1. For UV-metric pKa, the pKa values were determined by monitoring the change in UV absorbance with pH as the compound undergoes ionization.
(§3) The psKa values were extrapolated to 0% organic content using the Yasuda-Shedlovsky extrapolation procedure for pKa values.

[3] = pKa test, potentiometric method (pH-metric pKa); details: MeOH cosolvent, Yasuda-Shedlovsky extrapolation
Experimental: as §2
2. For pH-metric pKa, the pKa values were determined from an examination of the shape of the resultant titration curves and fitting a suitable theoretical model for the compound's ionization behavior onto the titration data.
as §3

[4] = Equilibrium solubility in pH buffers (pH 4.0-6.0) with pH adjustment; details: pH = 4.0 buffer (50 mM citrate), RT, with pH adjustment
Experimental: In details, ˜5 mg of solids were suspended into 1 mL of each medium with dosing conc. at ˜5 mg/mL. Additional solids were added into the sample to generate suspension if clear solution was obtained. The suspension was equilibrated via stirring (1000 rpm) for 24 hours. The pH of the suspension was adjusted when the final pH shifted above 0.3, and the samples were stirred for another 1.5 hours after pH adjustment. The suspension was centrifuged to obtain precipitate and supernatants. Solubility, purity and pH were tested for the supernatants after filtration, and isolated precipitate was tested by XRPD.
as §1

[5] = Log D7.4 test, n-octanol/aqueous (pH=7.4) shake flask method
Experimental: The detailed procedure is summarized below. • 1. Pre-equilibrate n-octanol and aqueous buffer by adding 10 mL n-octanol and 10 mL aqueous buffer into a glass vial and keep it rolling for 24 h. The mutually saturated n-octanol and aqueous buffer are obtained after phase separation. • 2. Weigh approximately 1.0 mg sample into a 3-mL glass vial with 1.0 mL of saturated n-octanol inside (obtained in step 1 above) and accelerate dissolution by ultrasonication. • 3. Add 1.0 mL of complementary saturated aqueous buffer into the vial. • 4. Prepare samples in triplicate. Seal the glass vial and mix on a rotary mixer at 25° C. for 24 h. • 5. The phases are separated after rolling. • 6. The concentrations of the compound in each phase are determined by HPLC. Samples in n-octanol phase are diluted 10 times by adding 100 μL of sample solution and 900 µL of ACN/H2O (v/v, 3:1) diluent and mixed well. • 7. Distribution coefficient, referred to as Dow, is calculated as the concentration of the test compound (both ionized and un-ionized) in the n-octanol phase divided by the corresponding concentration in the aqueous phase.

[6] = Solubility of freeform in acetone/H2O systems with various water activities; details: thermodynamic from solid
Experimental: (§4) To measure the solubility of freeform in acetone/H2O systems with various water activities, the above experiments were re-performed with addition of aw=0.3 acetone/H2O system. The suspension sample was centrifuged to obtain precipitate and supernatants. Solubility was tested for the supernatants after filtration, and isolated precipitate was tested by XRPD.

[7] = Thermodynamic relationships study: slurry competition in acetone/H2O systems; details: RT
Experimental: Slurry competition was conducted in acetone/H2O systems with various water activities (0.0-1.0). […] Solids were separated and tested by XRPD.
as §4
Solids were separated and tested by XRPD.

[8] = DVS (dynamic vapor sorption) moisture uptake
Experimental: (FIG. 5). Sample weight decreased rapidly when humidity decreased from 10% to 0%, which might be caused by loss of crystalline water.
DVS was measured via a SMS (Surface Measurement Systems) DVS Intrinsic.

[9] = Formulation solution stability experiments at 5° C.; details: thermodynamic from solid; for solubility at 2 days: aqueous buffer, 5° C., read-out: citrate solubility (supernatant concentration)
Experimental: The five formulations are shown in Table 7-2, and the characterization results are summarized in Example 7. The procedure is summarized below. • 1. […] Add about 149 mg citric acid into the volumetric flask of formulation 1/2/3/4. • 3. Add about 2037 mg of the corresponding sugar into the volumetric flask of formulation 2/3/4. […] Dilute to volume with water for formulation 1/2/3/4. • 5. Dilute to volume with pH=4.0 citrate/phosphate buffer for formulation 5. […] Sonicate the samples for about 2 mins, and filter with 0.45 µm filter to obtain a clear solution. • 7. Fill and seal about 0.7 mL solutions into 32 separate HPLC vials per each formulation and store under corresponding conditions.
The stability samples were stored at 5° C., 25° C., 40° C. and 60° C. for 28 days. After 1 day, 3 days, 7 days, 14 days and 28 days storage, the stability samples at 25° C., 40° C. and 60° C. were taken out for HPLC and pH tests. After 28 days storage, the stability samples at 5° C. were taken out for HPLC and pH tests.
Some of the stability samples at 5° C. became a suspension after storage for 37 days. The samples were then stirred (1000 rpm) at 5° C. for two days, resulting in all samples becoming a suspension. Three of the samples under each condition were characterized to determine the identity of precipitate, solubility of citrate salt at 5° C., and stability at 5° C. • 1. Sample 1 of formulations 1/2/3/4/5 after stirring was isolated, XPRD/^1H NMR of the solid was obtained, and purity/assay/concentration/pH of the supernatant were tested. • 2. Sample 2 of formulations 1/2/3/4/5 after stirring was stored at RT for about 1 hour, and the solid dissolved. Purity/assay/concentration of the solution was tested. • 3. Sample 3 of formulations 1/2/3/4/5 after stirring was sonicated at RT for about 2-3 mins, and the solid dissolved.

[10] = Solubility profile of freeform Type D in citrate buffers; details: aqueous citrate buffer, aqueous buffer; citrate salt prepared in situ, summary statement; read-out: aqueous solubility
Experimental: Additional solids were added into the sample to generate suspension if clear solution was obtained. The suspension was equilibrated via stirring (1000 rpm) for 24 hours. The suspension was centrifuged to obtain precipitate and supernatants. Solubility and pH were tested for the supernatants after filtration, and the isolated precipitate was tested by XRPD.

CC(=O)NCC1CCN(Cc2cc(Oc3ccc(N4CCN(CCC(=O)O)CC4)nc3)nc(-c3cc(Cl)cc(Cl)c3)c2)CC1 [Compound (I) freeform]
S: solubility [1]: 0.02 mg/mL | pKa ([2]; 36.4% MeOH in water, MeOH concentration of 36.4%, read-out: psKa (apparent pKa 1), UV-metric): 1.84 | pKa ([2]; 48.2% MeOH in water, MeOH concentration of 48.2%, read-out: psKa (apparent pKa 1), UV-metric): 1.56 | pKa ([2]; 63.9% MeOH in water, MeOH concentration of 63.9%, read-out: psKa (apparent pKa 1), UV-metric): 1.27 | pKa ([2]; MeOH cosolvent, Yasuda-Shedlovsky extrapolation, psKa out of effective pH range 2-12, reference only, read-out: pKa 1, UV-metric): 2.21 | pKa ([2]; MeOH cosolvent, Yasuda-Shedlovsky extrapolation, read-out: pKa 2, UV-metric): 6.98 | pKa ([2]; MeOH cosolvent, Yasuda-Shedlovsky extrapolation, read-out: pKa 3, UV-metric): 7.68 | pKa ([3]; read-out: pKa 1, pH-metric): 3.41 | pKa ([3]; read-out: pKa 2, pH-metric): 6.99 | pKa ([3]; read-out: pKa 3, pH-metric): 7.56 | S: solubility [4]: > 36.9 mg/mL | logD at 24 h ([5]; n-octanol/aqueous buffer (pH 7.4), n-octanol/aqueous pH 7.4, three runs, read-out: Average of LogD7.4): 2.23 | LogD7.4 ([5]; n-octanol/aqueous pH 7.4, single runs 1-3): 2.24 and 2.23 | Average of LogD7.4 ([5]; n-octanol/aqueous pH 7.4, three runs): 2.23 | Final pH in aqueous phase ([5]; runs 1-3): 7.3 | Concentration, Oil (n-octanol phase) ([5]; shake flask, 25° C., 24 h, runs 1-3): 1140 µg/mL and 1100 µg/mL and 1070 µg/mL | Concentration, Aqueous ([5]; shake flask, pH 7.4 buffer, 25° C., 24 h, runs 1-3): 7 µg/mL and 6 µg/mL

CC(=O)NCC1CCN(Cc2cc(Oc3ccc(N4CCN(CCC(=O)O)CC4)nc3)nc(-c3cc(Cl)cc(Cl)c3)c2)CC1 [Freeform Type B]
solubility at 2 days ([6]; acetone (aw 0), organic solvent or mixture, Acetone, aw 0, RT): 0.81 mg/mL (≈ 1.26 mM) | solubility at 2 days ([6]; acetone/H2O (986:14), aw 0.2, organic solvent or mixture, Acetone/H2O (986:14), aw 0.2, RT): 3.96 mg/mL (≈ 6.18 mM) | water activity (aw) at which the form was obtained [7]: below 0.2 | Moisture Uptake (DVS) ([8]; 25° C., from 0% RH to 80% RH): 6.3% | hygroscopicity ([8]; European pharmacopoeia 5.0 criteria, from DVS 0-80% RH at 25° C.): hygroscopic | form change after DVS test (XRPD) ([8]; XRPD before and after DVS): No form change

CC(=O)NCC1CCN(Cc2cc(Oc3ccc(N4CCN(CCC(=O)O)CC4)nc3)nc(-c3cc(Cl)cc(Cl)c3)c2)CC1 [citrate salt]
solubility at 2 days ([9]; formulation solution with sugar (supernatant), presence of sugars, lowest value): 10.4 mg/mL | solubility at 2 days ([9]; formulation solution without sugars (supernatant), without sugars): 16.9 mg/mL | solubility ([9]; formulation solutions 1/2/3/4/5, aqueous buffer, rt, all solids dissolved once warmed up, read-out: solubility of citrate salt): > 20 mg/mL | solubility at 24 h [10]: > 50 mg/mL
